Assays:
human MC1R (hMC1R) [1] = target: T1, human MC1R (hMC1R) (Homo sapiens, UniProt Q01726); experiment: Adenylate cyclase; type: cell-based; settings: EC50 ratio
human MC1R (hMC1R) [2] = target: T1, human MC1R (hMC1R); settings: [125I]NDP-α-MSH displacement at 10 μM; ref previously published data; cited from earlier work
human MC1R (hMC1R) [3] = target: T1, human MC1R (hMC1R); settings: cAMP at 10 μM, in relation to MT-II; ref previously published data; cited from earlier work
human MC3R (hMC3R) [4] = target: T2, human MC3R (hMC3R) (Homo sapiens, UniProt P41968); settings: [125I]NDP-α-MSH displacement at 10 μM; ref previously published data; cited from earlier work
T2 sequence (P41968 whole entry): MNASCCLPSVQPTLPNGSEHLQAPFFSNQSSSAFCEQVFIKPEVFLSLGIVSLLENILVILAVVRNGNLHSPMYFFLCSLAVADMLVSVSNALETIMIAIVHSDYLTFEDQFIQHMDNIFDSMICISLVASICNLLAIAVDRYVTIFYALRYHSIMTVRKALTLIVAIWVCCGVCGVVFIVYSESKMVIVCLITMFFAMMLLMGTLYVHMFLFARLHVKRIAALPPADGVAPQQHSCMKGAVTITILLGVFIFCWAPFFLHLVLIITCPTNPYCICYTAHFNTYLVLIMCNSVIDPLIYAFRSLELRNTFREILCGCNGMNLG

human MC4R (hMC4R) [5] = target: T3, human MC4R (hMC4R) (Homo sapiens, UniProt P32245); settings: [125I]NDP-α-MSH displacement at 10 μM; ref previously published data; cited from earlier work
T3 sequence (P32245 whole entry): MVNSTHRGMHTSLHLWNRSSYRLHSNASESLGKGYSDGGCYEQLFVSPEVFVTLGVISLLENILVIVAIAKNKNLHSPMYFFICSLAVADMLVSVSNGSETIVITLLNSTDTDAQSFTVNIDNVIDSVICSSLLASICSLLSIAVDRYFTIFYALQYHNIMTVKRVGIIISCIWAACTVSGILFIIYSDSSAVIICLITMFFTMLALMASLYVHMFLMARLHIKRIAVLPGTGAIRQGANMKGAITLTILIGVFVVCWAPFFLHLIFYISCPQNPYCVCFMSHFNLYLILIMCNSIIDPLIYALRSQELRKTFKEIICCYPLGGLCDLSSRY

human MC4R (hMC4R) [6] = target: T3, human MC4R (hMC4R); settings: cAMP at 10 μM, in relation to MT-II; ref previously published data; cited from earlier work
human MC5R (hMC5R) [7] = target: T4, human MC5R (hMC5R) (Homo sapiens, UniProt P33032); settings: ref previously published data, cited from earlier work; for hMC5R % BE: [125I]NDP-α-MSH displacement at 10 μM
T4 sequence (P33032 whole entry): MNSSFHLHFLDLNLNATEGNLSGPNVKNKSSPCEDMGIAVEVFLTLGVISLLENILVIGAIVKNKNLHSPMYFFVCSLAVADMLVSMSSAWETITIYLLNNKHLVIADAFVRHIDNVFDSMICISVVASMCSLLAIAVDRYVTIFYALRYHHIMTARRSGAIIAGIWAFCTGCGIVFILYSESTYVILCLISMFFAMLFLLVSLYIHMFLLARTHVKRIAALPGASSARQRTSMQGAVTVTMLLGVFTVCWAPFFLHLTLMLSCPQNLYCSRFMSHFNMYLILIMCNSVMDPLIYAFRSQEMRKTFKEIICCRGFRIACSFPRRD

human MC3R (hMC3R) [8] = target: T2, human MC3R (hMC3R); settings: ref previously published data, cited from earlier work; for hMC3R % max effect: cAMP at 10 μM, in relation to MT-II
human MC5R (hMC5R) [9] = target: T4, human MC5R (hMC5R); settings: cAMP at 10 μM, in relation to MT-II; ref previously published data; cited from earlier work

T1 sequence (Q01726 whole entry): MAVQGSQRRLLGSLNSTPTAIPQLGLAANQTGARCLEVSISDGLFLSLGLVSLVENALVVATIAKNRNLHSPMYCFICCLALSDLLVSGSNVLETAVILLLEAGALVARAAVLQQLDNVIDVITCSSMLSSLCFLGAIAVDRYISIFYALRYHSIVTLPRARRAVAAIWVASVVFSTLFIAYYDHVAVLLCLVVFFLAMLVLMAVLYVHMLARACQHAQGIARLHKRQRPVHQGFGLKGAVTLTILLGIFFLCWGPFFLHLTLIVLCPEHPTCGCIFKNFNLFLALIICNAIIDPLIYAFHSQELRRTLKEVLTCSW

increase in potency to hMC1R compared to γ-MSH (human MC1R (hMC1R) [1]) [fold]	Substance	hMC1R % BE (human MC1R (hMC1R) [2]) [%]	hMC1R % max effect (human MC1R (hMC1R) [3]) [%]	hMC3R % BE (human MC3R (hMC3R) [4]) [%]	hMC4R % BE (human MC4R (hMC4R) [5]) [%]	hMC4R % max effect (human MC4R (hMC4R) [6]) [%]	hMC5R % BE (human MC5R (hMC5R) [7]) [%]	hMC3R % max effect (human MC3R (hMC3R) [8]) [%]	EC50 (human MC3R (hMC3R) [8]; read-out: hMC3R EC50, cAMP accumulation) [nM]	IC50 (human MC5R (hMC5R) [7]; read-out: hMC5R IC50, 50% specific binding) [nM]	hMC5R % max effect (human MC5R (hMC5R) [9]) [%]
3	H-Tyr^1-Val^2-Met^3-Gly^4-His^5-Phe^6-Arg^7-Trp^8–Asp^9-Arg^10-Phe^11-Gly^12-NH2 [Compound 12]	100	100	100	100	76	100				
	H-Tyr-Val-Nle-Gly-His-D-Nal(2)-Arg-D-Trp-Asp-Arg-Phe-Gly-NH2 [Compound 1]			100			100	6	300 ± 6	3.5 ± 0.5	6
	Ac-Tyr^1-Val^2-Nle^3-Gly^4-His^5-D-Phe^6-Arg^7-Trp^8-Asp^9-Arg^10-Phe^11-Gly^12-NH2 [Compound 13]	100	100	100	100	100	100				100
	Ac-Ser-Tyr-Ser-Met-Glu-His-Phe-Arg-Trp-Gly-Lys-Pro-Val-NH2 [Compound 14]	100	100	100			100	100			100

Reference: paper PMC5999399 (Journal of medicinal chemistry, 2017)
